Laboratory results published in patent US20240398989A1, “METHODS AND COMPOSITIONS FOR DIAGNOSIS AND TREATMENT OF METABOLIC DISORDERS” (The Broad Institute, Inc., priority 2021, published 2024).

Tests used:
[1] = cited from earlier work
[2] = tested on: primary human hepatocytes (PHH); assay: LipocyteProfiler of drug-treated primary human hepatocytes; format: cell-based; conditions: PHH, 24h oleic acid (0.3 mM)
Method: Primary human hepatocytes (PHH) were purchased from BioIVT. Donor lot YNZ was used in this study. PHH were thawed and immediately resuspended in CP media (BioIVT) supplemented with torpedo antibiotic (BioIVT). Cell count and viability were assessed by trypan blue exclusion test prior to plating. […] Four hours after plating, media was replaced with fresh CP media. After 24 h, media was replaced with fresh CP media or CP media containing oleic acid (0.3 mM) or metformin (5 mM). Hepatocytes were incubated for an additional 24 h prior to processing. Human primary AMSCs and PHH were plated in 96-well CellCarrier plates (Perkinelmer #6005550). […] Primary human hepatocytes were stained after 48 h in culture, and 24h following treatment with oleic acid or metformin. On the respective day of the assay, cell culture media was removed and replaced by 0.5 μM Mitotracker staining solution (1 mM MitoTracker Deep Red stock (Invitrogen #M22426) diluted in culture media) to each well followed by 30 minutes incubation at 37° C.' protected from light. […] PFA was removed and cells were washed once with Hank's Balanced Salt Solution (1×), HBSS (Gibco #14025076). […] Finally, staining solution was removed and cells were washed three times with HBSS. Cells were imaged using a Opera Phenix High content screening system. […] Prior to processing, flat field illumination correction was performed using functions generated from the median intensity across each plate. Nuclei were identified using the DAPI stain and then expanded to identify whole cells using the Phalloidin/WGA and BODIPY stains. Regions of cytoplasm were then determined by removing the Nuclei from the Cell segmentations. Speckles of BODIPY staining were enhanced to assist in detection of small and large individual Lipid objects. For each object set measurements were collected representing size, shape, intensity, granularity, texture, colocalization and distance to neighbouring objects. After LipocyteProfiler (LP) feature extraction data was filtered by applying automated and manual quality control steps. […] Second, every field was assessed visually and fields that were corrupted by experimental induced technical artifacts were removed. Furthermore, blocklisted features (Way, Gregory (2019): Blocklist Features-Cell Profiler. figshare. […] After filtering data were normalised per plate using a robust scaling approach (Pedregosa et al. 2011) that subtracts the median from each variable and divides it by the interquartile range. Individual wells were aggregated for downstream analysis by cell depot and day of differentiation.

[3] = 1 year follow up clinical trial

Compound	hyperglycemia, share of patients [1, 3] [%]	severe hyperglycemia, share of patients [1, 3] [%]	loss of body weight, share of cases ([1]; clinical trial)	BODIPY Texture_AngularSecondMoment ([2]; p 7.21e-07)	lipid droplet number (LargeBODIPYObjects_Count) ([2]; p=2.3e-11)	overall lipid content (BODIPY MeanIntensity) ([2]; p=1.21e-09)	BODIPY Texture Entropy ([2]; p=2.56e-09)
CC1(C)CCC(CN2CCN(c3ccc(C(=O)NS(=O)(=O)c4ccc(NCC5CCOCC5)c([N+](=O)[O-])c4)c(Oc4cnc5[nH]ccc5c4)c3)CC2)=C(c2ccc(Cl)cc2)C1 [venetoclax]	16	5	11-13%	–	–	–	–
CCCCCCCC/C=C\CCCCCCCC(=O)O [oleic acid]	–	–	–	differences	increased	increased	differences
